Results as given in the kinase profiling compilation of Christmann-Franck et al. (2016).
Each block holds one compound with its values, some of them ahead of it.

Experiments:
Assay in all cases: KINOMEscan competition binding
Details in all cases: compound 10.0 µM
ACVR1 (human) = ACVR1 (human) (UniProt Q04771)
CHEK2 (human) = CHEK2 (human) (UniProt O96017)
PIP5K1A (human) = PIP5K1A (human) (UniProt Q99755)
STK25 (human) = STK25 (human) (UniProt O00506)
TXK (human) = TXK (human) (UniProt P42681)
MET (human) = MET (human) (UniProt P08581)
CDKL2 (human) = CDKL2 (human) (UniProt Q92772)
PIM2 (human) = PIM2 (human) (UniProt Q9P1W9)
PDPK1 (human) = PDPK1 (human) (UniProt O15530)
DAPK3 (human) = DAPK3 (human) (UniProt O43293)
CSNK1G2 (human) = CSNK1G2 (human) (UniProt P78368)
PRKACA (human) = PRKACA (human) (UniProt P17612)
MYO3A (human) = MYO3A (human) (UniProt Q8NEV4)
RPS6KA3 KD1 (human) = RPS6KA3 KD1 (human) (UniProt P51812)
PAK7 (human) = PAK7 (human) (UniProt Q9P286)
RPS6KA5 KD2 (human) = RPS6KA5 KD2 (human) (UniProt O75582)
AURKA (human) = AURKA (human) (UniProt O14965)
[1] = target: TYK2 JH1 catalytic (human) (UniProt P29597)
IRAK3 (human) = IRAK3 (human) (UniProt Q9Y616)
CDK2 (human) = CDK2 (human) (UniProt P24941)
PIK3CA (human) = PIK3CA (human) (UniProt P42336)
SRMS (human) = SRMS (human) (UniProt Q9H3Y6)
MYLK (human) = MYLK (human) (UniProt Q15746)
TNK1 (human) = TNK1 (human) (UniProt Q13470)
EPHA2 (human) = EPHA2 (human) (UniProt P29317)
STK4 (human) = STK4 (human) (UniProt Q13043)
MYLK4 (human) = MYLK4 (human) (UniProt Q86YV6)
NEK6 (human) = NEK6 (human) (UniProt Q9HC98)
[2] = system: EIF2AK4 KD2 (human), Q9P2K8 [S808G]
EPHA5 (human) = EPHA5 (human) (UniProt P54756)
MAP4K5 (human) = MAP4K5 (human) (UniProt Q9Y4K4)
PRKAA1 (human) = PRKAA1 (human) (UniProt Q13131)
MAP4K3 (human) = MAP4K3 (human) (UniProt Q8IVH8)
[3] = system: ABL1 (human), P00519 [Y253F]
PIK3C2B (human) = PIK3C2B (human) (UniProt O00750)
NTRK2 (human) = NTRK2 (human) (UniProt Q16620)
EIF2AK2 (human) = EIF2AK2 (human) (UniProt P19525)
MAPK12 (human) = MAPK12 (human) (UniProt P53778)
CAMK4 (human) = CAMK4 (human) (UniProt Q16566)
MELK (human) = MELK (human) (UniProt Q14680)
CAMKK1 (human) = CAMKK1 (human) (UniProt Q8N5S9)
[4] = system: RET (human), P07949 [M918T]
Chain of RET (human), P07949 [M918T] (P07949 whole entry M918T, looked up): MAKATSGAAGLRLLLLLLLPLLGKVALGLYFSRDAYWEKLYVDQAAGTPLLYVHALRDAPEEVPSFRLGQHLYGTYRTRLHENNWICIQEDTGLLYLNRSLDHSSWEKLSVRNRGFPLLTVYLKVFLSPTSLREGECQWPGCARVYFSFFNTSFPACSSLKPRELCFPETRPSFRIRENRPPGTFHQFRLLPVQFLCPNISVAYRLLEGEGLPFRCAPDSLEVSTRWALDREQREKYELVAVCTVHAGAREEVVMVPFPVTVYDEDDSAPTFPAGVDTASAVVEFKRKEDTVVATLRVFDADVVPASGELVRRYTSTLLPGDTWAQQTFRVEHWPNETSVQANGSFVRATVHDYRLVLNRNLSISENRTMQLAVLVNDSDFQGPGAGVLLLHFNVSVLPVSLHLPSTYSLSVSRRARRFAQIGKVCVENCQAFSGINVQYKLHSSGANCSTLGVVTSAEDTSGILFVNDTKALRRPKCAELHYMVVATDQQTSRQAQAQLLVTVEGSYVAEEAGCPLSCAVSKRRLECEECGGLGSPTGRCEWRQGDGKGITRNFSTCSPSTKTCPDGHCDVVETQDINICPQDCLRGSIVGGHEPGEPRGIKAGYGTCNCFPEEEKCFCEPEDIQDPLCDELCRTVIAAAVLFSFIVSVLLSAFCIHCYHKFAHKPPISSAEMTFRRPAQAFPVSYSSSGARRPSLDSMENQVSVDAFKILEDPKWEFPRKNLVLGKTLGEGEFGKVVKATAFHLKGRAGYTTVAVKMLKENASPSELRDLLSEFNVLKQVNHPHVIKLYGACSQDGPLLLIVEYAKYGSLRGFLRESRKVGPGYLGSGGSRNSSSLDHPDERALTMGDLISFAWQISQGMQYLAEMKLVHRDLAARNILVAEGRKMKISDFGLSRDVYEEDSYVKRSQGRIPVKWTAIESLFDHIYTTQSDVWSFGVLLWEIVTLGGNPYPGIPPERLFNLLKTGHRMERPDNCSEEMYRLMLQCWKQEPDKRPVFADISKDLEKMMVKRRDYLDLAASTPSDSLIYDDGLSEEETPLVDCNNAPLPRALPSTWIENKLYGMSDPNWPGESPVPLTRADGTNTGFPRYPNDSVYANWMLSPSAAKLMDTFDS

Chain of EIF2AK2 (human) (P19525 whole entry, looked up): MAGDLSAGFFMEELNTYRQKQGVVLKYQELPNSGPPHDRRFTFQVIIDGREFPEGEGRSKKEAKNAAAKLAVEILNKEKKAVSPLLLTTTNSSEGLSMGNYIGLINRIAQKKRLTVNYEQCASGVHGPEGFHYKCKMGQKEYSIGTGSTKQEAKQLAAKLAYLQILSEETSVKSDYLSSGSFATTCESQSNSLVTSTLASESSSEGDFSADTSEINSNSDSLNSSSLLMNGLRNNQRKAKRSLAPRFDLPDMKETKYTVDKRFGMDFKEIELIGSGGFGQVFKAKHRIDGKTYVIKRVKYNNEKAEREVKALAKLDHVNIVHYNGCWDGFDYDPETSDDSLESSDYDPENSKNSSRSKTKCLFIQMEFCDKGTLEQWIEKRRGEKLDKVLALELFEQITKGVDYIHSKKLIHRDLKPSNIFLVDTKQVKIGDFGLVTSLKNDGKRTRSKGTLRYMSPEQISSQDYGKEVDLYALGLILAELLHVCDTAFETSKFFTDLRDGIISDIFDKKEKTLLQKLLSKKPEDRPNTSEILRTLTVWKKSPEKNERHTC
Chain of MAPK12 (human) (P53778 whole entry, looked up): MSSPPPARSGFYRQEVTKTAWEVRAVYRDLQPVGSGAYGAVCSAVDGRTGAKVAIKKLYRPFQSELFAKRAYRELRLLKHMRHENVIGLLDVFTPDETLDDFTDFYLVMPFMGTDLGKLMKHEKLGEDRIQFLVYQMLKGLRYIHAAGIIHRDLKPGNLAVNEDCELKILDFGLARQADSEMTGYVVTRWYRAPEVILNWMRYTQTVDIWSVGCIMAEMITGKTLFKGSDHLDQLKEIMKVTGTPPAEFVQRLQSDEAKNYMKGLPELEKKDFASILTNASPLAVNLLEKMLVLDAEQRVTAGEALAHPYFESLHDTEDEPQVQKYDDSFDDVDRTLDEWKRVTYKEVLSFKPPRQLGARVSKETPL
Chain of STK4 (human) (Q13043 whole entry, looked up): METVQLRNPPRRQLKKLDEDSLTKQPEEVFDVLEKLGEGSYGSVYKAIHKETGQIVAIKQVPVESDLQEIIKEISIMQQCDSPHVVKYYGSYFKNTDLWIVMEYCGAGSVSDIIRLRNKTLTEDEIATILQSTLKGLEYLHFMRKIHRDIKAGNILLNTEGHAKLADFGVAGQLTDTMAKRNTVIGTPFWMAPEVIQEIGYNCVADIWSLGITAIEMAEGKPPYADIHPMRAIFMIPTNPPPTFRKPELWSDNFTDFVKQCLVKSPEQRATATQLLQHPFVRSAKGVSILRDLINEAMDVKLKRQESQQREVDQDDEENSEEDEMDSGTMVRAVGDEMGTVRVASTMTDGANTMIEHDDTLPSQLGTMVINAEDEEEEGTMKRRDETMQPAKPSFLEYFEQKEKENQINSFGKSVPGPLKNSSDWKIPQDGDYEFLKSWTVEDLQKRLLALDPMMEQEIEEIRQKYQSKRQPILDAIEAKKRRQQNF
Chain of NTRK2 (human) (Q16620 whole entry, looked up): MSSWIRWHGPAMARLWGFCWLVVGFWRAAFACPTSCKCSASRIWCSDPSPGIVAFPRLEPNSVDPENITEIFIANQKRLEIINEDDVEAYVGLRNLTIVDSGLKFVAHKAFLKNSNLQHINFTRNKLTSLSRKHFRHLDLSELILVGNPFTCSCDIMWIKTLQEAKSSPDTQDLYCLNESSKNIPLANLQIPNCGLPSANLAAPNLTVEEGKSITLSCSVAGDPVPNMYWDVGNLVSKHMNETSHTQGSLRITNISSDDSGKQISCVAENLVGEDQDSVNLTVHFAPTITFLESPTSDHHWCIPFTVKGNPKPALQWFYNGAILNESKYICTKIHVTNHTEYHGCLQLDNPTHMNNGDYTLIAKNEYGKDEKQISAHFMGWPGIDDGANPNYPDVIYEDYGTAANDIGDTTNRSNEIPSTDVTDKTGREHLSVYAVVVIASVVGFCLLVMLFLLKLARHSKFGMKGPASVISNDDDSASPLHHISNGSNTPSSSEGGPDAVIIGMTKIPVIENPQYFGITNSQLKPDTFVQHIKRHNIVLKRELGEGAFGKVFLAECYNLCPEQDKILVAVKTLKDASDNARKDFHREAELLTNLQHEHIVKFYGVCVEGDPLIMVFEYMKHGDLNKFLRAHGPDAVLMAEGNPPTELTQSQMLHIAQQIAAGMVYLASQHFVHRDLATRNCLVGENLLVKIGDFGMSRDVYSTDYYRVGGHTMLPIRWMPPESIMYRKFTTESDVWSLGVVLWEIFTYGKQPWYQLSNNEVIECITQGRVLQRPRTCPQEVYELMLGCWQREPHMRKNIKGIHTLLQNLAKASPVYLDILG
Chain of TXK (human) (P42681 whole entry, looked up): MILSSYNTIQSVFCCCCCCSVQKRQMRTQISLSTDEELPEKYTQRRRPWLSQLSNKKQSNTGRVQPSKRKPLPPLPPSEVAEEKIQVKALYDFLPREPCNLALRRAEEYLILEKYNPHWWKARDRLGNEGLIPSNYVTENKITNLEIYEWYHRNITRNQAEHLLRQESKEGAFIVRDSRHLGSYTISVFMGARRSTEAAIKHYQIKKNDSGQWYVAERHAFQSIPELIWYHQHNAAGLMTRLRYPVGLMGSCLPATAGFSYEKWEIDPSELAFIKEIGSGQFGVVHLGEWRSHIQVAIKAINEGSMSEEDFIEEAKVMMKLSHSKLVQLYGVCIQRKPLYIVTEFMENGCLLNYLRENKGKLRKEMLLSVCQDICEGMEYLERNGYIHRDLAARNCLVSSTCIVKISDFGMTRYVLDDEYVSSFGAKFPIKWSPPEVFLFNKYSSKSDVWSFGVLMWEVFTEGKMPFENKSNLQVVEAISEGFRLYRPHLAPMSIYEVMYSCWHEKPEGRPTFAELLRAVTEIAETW
Chain of IRAK3 (human) (Q9Y616 whole entry, looked up): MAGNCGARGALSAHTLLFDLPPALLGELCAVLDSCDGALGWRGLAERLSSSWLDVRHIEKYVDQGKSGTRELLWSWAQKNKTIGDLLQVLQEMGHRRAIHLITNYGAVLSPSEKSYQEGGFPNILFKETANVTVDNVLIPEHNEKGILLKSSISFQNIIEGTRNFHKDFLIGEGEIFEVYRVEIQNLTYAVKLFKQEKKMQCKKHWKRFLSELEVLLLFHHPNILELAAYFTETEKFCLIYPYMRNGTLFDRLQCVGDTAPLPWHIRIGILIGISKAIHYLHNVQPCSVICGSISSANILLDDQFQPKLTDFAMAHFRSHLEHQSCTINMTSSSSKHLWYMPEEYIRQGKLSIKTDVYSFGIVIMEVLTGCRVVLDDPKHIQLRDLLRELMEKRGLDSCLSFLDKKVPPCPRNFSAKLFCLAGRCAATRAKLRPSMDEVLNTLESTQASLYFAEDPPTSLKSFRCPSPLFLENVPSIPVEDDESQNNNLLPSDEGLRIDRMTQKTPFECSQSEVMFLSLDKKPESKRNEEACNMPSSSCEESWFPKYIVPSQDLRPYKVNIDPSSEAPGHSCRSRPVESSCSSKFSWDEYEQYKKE
Chain of CDKL2 (human) (Q92772 whole entry, looked up): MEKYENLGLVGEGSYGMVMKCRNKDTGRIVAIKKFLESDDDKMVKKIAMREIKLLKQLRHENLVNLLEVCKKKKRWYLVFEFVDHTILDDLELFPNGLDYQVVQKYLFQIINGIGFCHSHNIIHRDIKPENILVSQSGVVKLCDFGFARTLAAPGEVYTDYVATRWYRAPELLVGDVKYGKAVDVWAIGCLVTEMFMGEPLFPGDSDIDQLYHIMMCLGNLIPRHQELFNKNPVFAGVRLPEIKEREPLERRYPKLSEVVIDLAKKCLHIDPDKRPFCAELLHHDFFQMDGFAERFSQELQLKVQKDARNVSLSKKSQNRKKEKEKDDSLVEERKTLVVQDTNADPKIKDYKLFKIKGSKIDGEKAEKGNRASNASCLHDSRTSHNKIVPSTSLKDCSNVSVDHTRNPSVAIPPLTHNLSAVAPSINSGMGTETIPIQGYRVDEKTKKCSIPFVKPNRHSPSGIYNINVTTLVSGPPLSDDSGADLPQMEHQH

kinase still bound, per cent of control (ACVR1 (human)): 0% | kinase still bound, per cent of control (CHEK2 (human)): 0% | kinase still bound, per cent of control (PIP5K1A (human)): 1.3% | kinase still bound, per cent of control (STK25 (human)): 40% | kinase still bound, per cent of control (TXK (human)): 6.9% | kinase still bound, per cent of control (MET (human)): 0% | kinase still bound, per cent of control (CDKL2 (human)): 40% | kinase still bound, per cent of control (PIM2 (human)): 40% | kinase still bound, per cent of control (PDPK1 (human)): 28% | kinase still bound, per cent of control (DAPK3 (human)): 4.5% | kinase still bound, per cent of control (CSNK1G2 (human)): 40% | kinase still bound, per cent of control (PRKACA (human)): 11% | kinase still bound, per cent of control (MYO3A (human)): 0.25% | kinase still bound, per cent of control (RPS6KA3 KD1 (human)): 0.55% | kinase still bound, per cent of control (PAK7 (human)): 2.7% | kinase still bound, per cent of control (RPS6KA5 KD2 (human)): 40% | kinase still bound, per cent of control (AURKA (human)): 0% | kinase still bound, per cent of control [1]: 0.45% | kinase still bound, per cent of control (IRAK3 (human)): 0.15% | kinase still bound, per cent of control (CDK2 (human)): 24% | kinase still bound, per cent of control (PIK3CA (human)): 40% | kinase still bound, per cent of control (SRMS (human)): 0% | kinase still bound, per cent of control (MYLK (human)): 0.5% | kinase still bound, per cent of control (TNK1 (human)): 0.45% | kinase still bound, per cent of control (EPHA2 (human)): 27% | kinase still bound, per cent of control (STK4 (human)): 4.1% | kinase still bound, per cent of control (MYLK4 (human)): 40% | kinase still bound, per cent of control (NEK6 (human)): 1.8% | kinase still bound, per cent of control [2]: 4.5% | kinase still bound, per cent of control (EPHA5 (human)): 21% | kinase still bound, per cent of control (MAP4K5 (human)): 0.3% | kinase still bound, per cent of control (PRKAA1 (human)): 0.1% | kinase still bound, per cent of control (MAP4K3 (human)): 2.5% | kinase still bound, per cent of control [3]: 4.2% | kinase still bound, per cent of control (PIK3C2B (human)): 40% | kinase still bound, per cent of control (NTRK2 (human)): 8.4% | kinase still bound, per cent of control (EIF2AK2 (human)): 40% | kinase still bound, per cent of control (MAPK12 (human)): 40% | kinase still bound, per cent of control (CAMK4 (human)): 0.5% | kinase still bound, per cent of control (MELK (human)): 0.95% | kinase still bound, per cent of control (CAMKK1 (human)): 0.2%
SMILES: COc1cc(N2CCC(N3CCN(C)CC3)CC2)ccc1Nc1ncc(Cl)c(Nc2ccccc2S(=O)(=O)C(C)C)n1

SMILES: CCN1CCN(Cc2ccc(NC(=O)c3ccc(C)c(/C=C/c4cnc(Nc5cc(N6CCNCC6)nc(C)n5)cn4)c3)cc2C(F)(F)F)CC1
kinase still bound, per cent of control (ACVR1 (human)): 100% | kinase still bound, per cent of control (CHEK2 (human)): 83% | kinase still bound, per cent of control (PIP5K1A (human)): 86% | kinase still bound, per cent of control (STK25 (human)): 35% | kinase still bound, per cent of control (TXK (human)): 4% | kinase still bound, per cent of control (MET (human)): 78% | kinase still bound, per cent of control (CDKL2 (human)): 0.15% | kinase still bound, per cent of control (PIM2 (human)): 50% | kinase still bound, per cent of control (PDPK1 (human)): 100% | kinase still bound, per cent of control (DAPK3 (human)): 91% | kinase still bound, per cent of control [4]: 0.2% | kinase still bound, per cent of control (CSNK1G2 (human)): 96% | kinase still bound, per cent of control (PRKACA (human)): 26% | kinase still bound, per cent of control (MYO3A (human)): 60% | kinase still bound, per cent of control (RPS6KA3 KD1 (human)): 43% | kinase still bound, per cent of control (PAK7 (human)): 100% | kinase still bound, per cent of control (RPS6KA5 KD2 (human)): 73% | kinase still bound, per cent of control (AURKA (human)): 78% | kinase still bound, per cent of control [1]: 29% | kinase still bound, per cent of control (IRAK3 (human)): 87% | kinase still bound, per cent of control (CDK2 (human)): 100% | kinase still bound, per cent of control (PIK3CA (human)): 92% | kinase still bound, per cent of control (SRMS (human)): 8.2% | kinase still bound, per cent of control (MYLK (human)): 67% | kinase still bound, per cent of control (TNK1 (human)): 13% | kinase still bound, per cent of control (EPHA2 (human)): 5.4% | kinase still bound, per cent of control (STK4 (human)): 22% | kinase still bound, per cent of control (MYLK4 (human)): 100% | kinase still bound, per cent of control (NEK6 (human)): 100% | kinase still bound, per cent of control [2]: 0.8% | kinase still bound, per cent of control (EPHA5 (human)): 20% | kinase still bound, per cent of control (MAP4K5 (human)): 0.55% | kinase still bound, per cent of control (PRKAA1 (human)): 18% | kinase still bound, per cent of control (MAP4K3 (human)): 0.9% | kinase still bound, per cent of control [3]: 0.1% | kinase still bound, per cent of control (PIK3C2B (human)): 79% | kinase still bound, per cent of control (NTRK2 (human)): 1% | kinase still bound, per cent of control (EIF2AK2 (human)): 80% | kinase still bound, per cent of control (MAPK12 (human)): 39% | kinase still bound, per cent of control (CAMK4 (human)): 100% | kinase still bound, per cent of control (MELK (human)): 25% | kinase still bound, per cent of control (CAMKK1 (human)): 98%

SMILES: CCOc1cc(N2CCC(N3CCCCC3)CC2)ccc1Nc1nc(Nc2ccccc2S(=O)(=O)C(C)C)c2cn[nH]c2n1
kinase still bound, per cent of control (ACVR1 (human)): 60% | kinase still bound, per cent of control (CHEK2 (human)): 23% | kinase still bound, per cent of control (PIP5K1A (human)): 39% | kinase still bound, per cent of control (STK25 (human)): 95% | kinase still bound, per cent of control (TXK (human)): 100% | kinase still bound, per cent of control (MET (human)): 100% | kinase still bound, per cent of control (CDKL2 (human)): 91% | kinase still bound, per cent of control (PIM2 (human)): 100% | kinase still bound, per cent of control (PDPK1 (human)): 100% | kinase still bound, per cent of control (DAPK3 (human)): 83% | kinase still bound, per cent of control [4]: 100% | kinase still bound, per cent of control (CSNK1G2 (human)): 46% | kinase still bound, per cent of control (PRKACA (human)): 100% | kinase still bound, per cent of control (MYO3A (human)): 38% | kinase still bound, per cent of control (RPS6KA3 KD1 (human)): 2% | kinase still bound, per cent of control (PAK7 (human)): 80% | kinase still bound, per cent of control (RPS6KA5 KD2 (human)): 100% | kinase still bound, per cent of control (AURKA (human)): 100% | kinase still bound, per cent of control [1]: 87% | kinase still bound, per cent of control (IRAK3 (human)): 100% | kinase still bound, per cent of control (CDK2 (human)): 100% | kinase still bound, per cent of control (PIK3CA (human)): 99% | kinase still bound, per cent of control (SRMS (human)): 27% | kinase still bound, per cent of control (MYLK (human)): 0.9% | kinase still bound, per cent of control (TNK1 (human)): 2.4% | kinase still bound, per cent of control (EPHA2 (human)): 100% | kinase still bound, per cent of control (STK4 (human)): 100% | kinase still bound, per cent of control (MYLK4 (human)): 100% | kinase still bound, per cent of control (NEK6 (human)): 100% | kinase still bound, per cent of control [2]: 100% | kinase still bound, per cent of control (EPHA5 (human)): 100% | kinase still bound, per cent of control (MAP4K5 (human)): 58% | kinase still bound, per cent of control (PRKAA1 (human)): 51% | kinase still bound, per cent of control (MAP4K3 (human)): 10% | kinase still bound, per cent of control [3]: 61% | kinase still bound, per cent of control (PIK3C2B (human)): 100% | kinase still bound, per cent of control (NTRK2 (human)): 59% | kinase still bound, per cent of control (EIF2AK2 (human)): 100% | kinase still bound, per cent of control (MAPK12 (human)): 100% | kinase still bound, per cent of control (CAMK4 (human)): 1% | kinase still bound, per cent of control (MELK (human)): 92% | kinase still bound, per cent of control (CAMKK1 (human)): 46%

kinase still bound, per cent of control (TXK (human)): 12% | kinase still bound, per cent of control (CDKL2 (human)): 0.9% | kinase still bound, per cent of control [4]: 0% | kinase still bound, per cent of control (MYO3A (human)): 6.4% | kinase still bound, per cent of control (CDK2 (human)): 11% | kinase still bound, per cent of control (SRMS (human)): 4.6% | kinase still bound, per cent of control (TNK1 (human)): 0.35% | kinase still bound, per cent of control (EPHA2 (human)): 3.1% | kinase still bound, per cent of control (PRKAA1 (human)): 33% | kinase still bound, per cent of control (MAP4K3 (human)): 18% | kinase still bound, per cent of control [3]: 1.1% | kinase still bound, per cent of control (MAPK12 (human)): 0%
SMILES: CCN1CCN(Cc2ccc(NC(=O)c3ccc(C)c(Oc4ccnc5[nH]ccc45)c3)cc2C(F)(F)F)CC1
